Experimental findings from ChEMBL document CHEMBL5465560, “Selectivity Literature for EUbOPEN Chemogenomic Library” (2024) are described below.

What is called IC50 is the concentration needed to halve the response being measured.

The structures appear in SMILES notation.

The target in test [1] is T1, Histone-arginine methyltransferase CARM1 (Homo sapiens, UniProt Q86X55).
T1 sequence (Q86X55 whole entry): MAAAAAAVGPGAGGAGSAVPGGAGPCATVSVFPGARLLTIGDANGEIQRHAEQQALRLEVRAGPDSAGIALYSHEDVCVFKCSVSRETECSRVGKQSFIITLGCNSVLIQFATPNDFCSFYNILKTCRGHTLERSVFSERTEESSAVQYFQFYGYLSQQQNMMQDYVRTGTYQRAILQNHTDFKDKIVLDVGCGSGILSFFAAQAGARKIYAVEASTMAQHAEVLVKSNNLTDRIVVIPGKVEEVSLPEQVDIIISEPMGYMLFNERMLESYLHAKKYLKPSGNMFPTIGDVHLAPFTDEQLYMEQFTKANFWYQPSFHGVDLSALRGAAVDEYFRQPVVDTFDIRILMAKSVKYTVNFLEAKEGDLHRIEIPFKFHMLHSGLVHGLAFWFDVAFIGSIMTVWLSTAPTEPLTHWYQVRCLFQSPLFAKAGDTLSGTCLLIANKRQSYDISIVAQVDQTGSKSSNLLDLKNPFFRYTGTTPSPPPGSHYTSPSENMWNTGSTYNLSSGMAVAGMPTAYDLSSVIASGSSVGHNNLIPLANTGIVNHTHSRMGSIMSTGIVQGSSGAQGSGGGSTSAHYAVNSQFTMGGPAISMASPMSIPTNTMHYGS
Kind of test: Selectivity interaction (Western Blot (dimethylation of BAF155 (BAF155me2a/BAF155) in U266B1 cells)) EUB0000255b CARM1. In kind it is cell-based, U-266. In general terms: Immunoblotting shows a protein as a band on a membrane.

Test [2] addresses Ribosomal protein S6 kinase alpha-4 (Homo sapiens) (UniProt O75676). Kind of test: Selectivity interaction (KinomeScan (DiscoverX)) EUB0001619a RPS6KA4. The settings on record: at 1 µM.
The target in test [3] is T2, Serine/threonine-protein kinase ULK1 (Homo sapiens) (UniProt O75385).
T2 sequence (whole entry): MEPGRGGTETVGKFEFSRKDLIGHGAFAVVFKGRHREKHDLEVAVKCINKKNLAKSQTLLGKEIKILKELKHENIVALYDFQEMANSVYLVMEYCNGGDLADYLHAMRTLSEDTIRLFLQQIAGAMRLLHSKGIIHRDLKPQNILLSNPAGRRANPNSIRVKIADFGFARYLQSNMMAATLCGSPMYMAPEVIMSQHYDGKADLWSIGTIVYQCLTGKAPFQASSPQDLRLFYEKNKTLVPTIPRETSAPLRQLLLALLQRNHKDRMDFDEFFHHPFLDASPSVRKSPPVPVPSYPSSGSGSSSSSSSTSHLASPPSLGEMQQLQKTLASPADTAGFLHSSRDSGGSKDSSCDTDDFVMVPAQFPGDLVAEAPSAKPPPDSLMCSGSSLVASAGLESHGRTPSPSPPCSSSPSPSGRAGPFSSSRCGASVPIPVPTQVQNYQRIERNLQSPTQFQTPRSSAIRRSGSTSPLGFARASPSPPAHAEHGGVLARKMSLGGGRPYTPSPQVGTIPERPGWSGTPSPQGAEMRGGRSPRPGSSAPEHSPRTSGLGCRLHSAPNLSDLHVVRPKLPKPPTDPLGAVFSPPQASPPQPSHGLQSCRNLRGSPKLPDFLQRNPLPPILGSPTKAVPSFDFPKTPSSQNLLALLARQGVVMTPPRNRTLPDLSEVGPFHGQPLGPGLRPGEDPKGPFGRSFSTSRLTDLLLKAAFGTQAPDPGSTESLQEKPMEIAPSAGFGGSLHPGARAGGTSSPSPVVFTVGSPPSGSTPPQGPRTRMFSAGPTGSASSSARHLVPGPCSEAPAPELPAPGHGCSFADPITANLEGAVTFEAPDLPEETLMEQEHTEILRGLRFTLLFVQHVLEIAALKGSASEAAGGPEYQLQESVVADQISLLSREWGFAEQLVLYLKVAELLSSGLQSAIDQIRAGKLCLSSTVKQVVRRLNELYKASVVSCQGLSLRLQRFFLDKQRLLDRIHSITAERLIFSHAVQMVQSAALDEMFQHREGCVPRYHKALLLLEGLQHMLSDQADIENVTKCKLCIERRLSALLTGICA
Put plainly: Selectivity interaction (KinomeScan (DiscoverX)) EUB0000695a ULK1. The settings on record: at 100 nM.

Test [4] deals with T3, Dual specificity protein kinase TTK (Homo sapiens) (UniProt P33981).
T3 sequence (whole entry): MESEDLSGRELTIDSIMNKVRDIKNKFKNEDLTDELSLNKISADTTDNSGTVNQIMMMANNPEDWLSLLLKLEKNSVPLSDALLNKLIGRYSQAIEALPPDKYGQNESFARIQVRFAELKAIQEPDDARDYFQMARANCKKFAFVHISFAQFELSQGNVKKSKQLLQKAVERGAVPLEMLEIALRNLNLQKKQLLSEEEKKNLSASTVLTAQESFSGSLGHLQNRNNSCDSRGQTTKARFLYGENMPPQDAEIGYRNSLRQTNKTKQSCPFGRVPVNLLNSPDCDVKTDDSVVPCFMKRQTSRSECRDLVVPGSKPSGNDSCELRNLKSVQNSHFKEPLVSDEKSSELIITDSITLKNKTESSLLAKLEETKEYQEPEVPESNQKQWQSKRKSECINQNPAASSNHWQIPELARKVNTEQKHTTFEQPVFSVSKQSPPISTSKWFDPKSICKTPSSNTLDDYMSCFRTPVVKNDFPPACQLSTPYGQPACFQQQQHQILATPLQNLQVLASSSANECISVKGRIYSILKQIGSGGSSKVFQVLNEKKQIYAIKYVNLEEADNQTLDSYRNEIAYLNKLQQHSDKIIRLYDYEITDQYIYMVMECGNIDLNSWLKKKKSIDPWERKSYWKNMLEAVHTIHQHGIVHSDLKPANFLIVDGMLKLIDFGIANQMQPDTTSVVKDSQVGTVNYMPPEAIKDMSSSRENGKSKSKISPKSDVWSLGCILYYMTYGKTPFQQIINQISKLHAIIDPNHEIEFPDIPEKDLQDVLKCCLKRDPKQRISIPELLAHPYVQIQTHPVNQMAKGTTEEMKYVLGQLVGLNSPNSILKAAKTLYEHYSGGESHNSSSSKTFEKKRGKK
Put plainly: Selectivity interaction (KinomeScan (DiscoverX)) EUB0000666a TTK. The settings on record: at 10 µM.

Test [5] deals with Serine/threonine-protein kinase B-raf (Homo sapiens) (UniProt P15056). Put plainly: Selectivity interaction (KinomeScan (DiscoverX)) EUB0000607a BRAF. The settings on record: at 10 µM.
Serine/threonine-protein kinase B-raf (Homo sapiens), sequence (P15056 whole entry): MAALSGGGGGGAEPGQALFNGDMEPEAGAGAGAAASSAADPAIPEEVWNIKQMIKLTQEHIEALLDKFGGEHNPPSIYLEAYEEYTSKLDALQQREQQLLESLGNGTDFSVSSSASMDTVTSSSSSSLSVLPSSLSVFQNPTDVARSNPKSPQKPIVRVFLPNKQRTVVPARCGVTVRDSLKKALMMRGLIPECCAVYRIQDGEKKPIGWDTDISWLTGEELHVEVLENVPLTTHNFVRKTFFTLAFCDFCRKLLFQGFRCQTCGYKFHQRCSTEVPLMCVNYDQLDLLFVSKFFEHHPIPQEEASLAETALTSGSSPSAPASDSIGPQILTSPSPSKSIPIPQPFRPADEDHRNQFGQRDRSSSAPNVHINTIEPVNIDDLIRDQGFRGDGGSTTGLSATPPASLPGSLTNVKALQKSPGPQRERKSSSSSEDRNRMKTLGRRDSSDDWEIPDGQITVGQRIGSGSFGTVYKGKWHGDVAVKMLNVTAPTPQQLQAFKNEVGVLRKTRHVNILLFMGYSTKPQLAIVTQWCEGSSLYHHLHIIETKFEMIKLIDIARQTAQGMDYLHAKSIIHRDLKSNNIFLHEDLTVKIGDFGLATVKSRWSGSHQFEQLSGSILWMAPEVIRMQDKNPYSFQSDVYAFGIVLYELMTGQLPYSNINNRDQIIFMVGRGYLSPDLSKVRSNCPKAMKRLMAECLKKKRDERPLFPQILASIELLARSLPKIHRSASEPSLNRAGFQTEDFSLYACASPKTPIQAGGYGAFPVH
The next test concerns the target Insulin receptor (Homo sapiens, UniProt P06213). The settings on record: at 10 µM.
Test [6] deals with Tyrosine-protein kinase ABL1 (Homo sapiens, UniProt P00519). Kind of test: Selectivity interaction (Kinase panel (DSF assay)) EUB0001559a ABL1. (In general: Differential scanning fluorimetry follows unfolding on heating by fluorescence.)
Tyrosine-protein kinase ABL1, sequence (P00519 whole entry): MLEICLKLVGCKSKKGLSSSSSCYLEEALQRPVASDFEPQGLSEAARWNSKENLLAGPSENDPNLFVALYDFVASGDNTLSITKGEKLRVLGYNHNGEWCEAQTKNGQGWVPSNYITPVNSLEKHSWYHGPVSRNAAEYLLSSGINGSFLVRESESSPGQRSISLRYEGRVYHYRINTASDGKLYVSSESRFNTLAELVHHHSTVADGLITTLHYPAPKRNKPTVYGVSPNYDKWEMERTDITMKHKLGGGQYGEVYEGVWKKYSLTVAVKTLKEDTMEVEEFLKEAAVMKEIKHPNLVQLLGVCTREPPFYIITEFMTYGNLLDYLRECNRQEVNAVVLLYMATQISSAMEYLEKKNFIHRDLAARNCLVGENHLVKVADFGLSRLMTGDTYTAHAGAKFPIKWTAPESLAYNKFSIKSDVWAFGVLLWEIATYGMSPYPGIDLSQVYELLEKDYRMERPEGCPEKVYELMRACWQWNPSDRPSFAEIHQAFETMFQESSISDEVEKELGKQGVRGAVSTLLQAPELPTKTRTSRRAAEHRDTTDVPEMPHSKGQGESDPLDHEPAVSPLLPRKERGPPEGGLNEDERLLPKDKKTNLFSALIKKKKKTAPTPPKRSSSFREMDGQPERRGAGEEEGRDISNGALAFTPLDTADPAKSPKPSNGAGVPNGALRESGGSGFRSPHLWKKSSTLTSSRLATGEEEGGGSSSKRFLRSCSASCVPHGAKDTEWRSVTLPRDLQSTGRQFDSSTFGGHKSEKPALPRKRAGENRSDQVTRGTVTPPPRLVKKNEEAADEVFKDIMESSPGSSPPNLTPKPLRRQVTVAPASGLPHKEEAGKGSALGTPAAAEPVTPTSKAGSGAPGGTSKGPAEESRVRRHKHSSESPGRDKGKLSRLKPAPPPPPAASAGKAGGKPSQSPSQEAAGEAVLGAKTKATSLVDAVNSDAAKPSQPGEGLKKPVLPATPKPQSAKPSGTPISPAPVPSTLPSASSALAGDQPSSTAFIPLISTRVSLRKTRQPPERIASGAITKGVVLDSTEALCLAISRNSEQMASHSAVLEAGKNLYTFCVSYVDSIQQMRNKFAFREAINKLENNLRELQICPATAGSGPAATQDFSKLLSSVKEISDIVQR
In a further test the target is Focal adhesion kinase 1 (Homo sapiens, UniProt Q05397). Kind of test: Selectivity interaction (KinomeScan (DiscoverX)) EUB0000045b PTK2.
Focal adhesion kinase 1, sequence (Q05397 2-1052 limits assumed): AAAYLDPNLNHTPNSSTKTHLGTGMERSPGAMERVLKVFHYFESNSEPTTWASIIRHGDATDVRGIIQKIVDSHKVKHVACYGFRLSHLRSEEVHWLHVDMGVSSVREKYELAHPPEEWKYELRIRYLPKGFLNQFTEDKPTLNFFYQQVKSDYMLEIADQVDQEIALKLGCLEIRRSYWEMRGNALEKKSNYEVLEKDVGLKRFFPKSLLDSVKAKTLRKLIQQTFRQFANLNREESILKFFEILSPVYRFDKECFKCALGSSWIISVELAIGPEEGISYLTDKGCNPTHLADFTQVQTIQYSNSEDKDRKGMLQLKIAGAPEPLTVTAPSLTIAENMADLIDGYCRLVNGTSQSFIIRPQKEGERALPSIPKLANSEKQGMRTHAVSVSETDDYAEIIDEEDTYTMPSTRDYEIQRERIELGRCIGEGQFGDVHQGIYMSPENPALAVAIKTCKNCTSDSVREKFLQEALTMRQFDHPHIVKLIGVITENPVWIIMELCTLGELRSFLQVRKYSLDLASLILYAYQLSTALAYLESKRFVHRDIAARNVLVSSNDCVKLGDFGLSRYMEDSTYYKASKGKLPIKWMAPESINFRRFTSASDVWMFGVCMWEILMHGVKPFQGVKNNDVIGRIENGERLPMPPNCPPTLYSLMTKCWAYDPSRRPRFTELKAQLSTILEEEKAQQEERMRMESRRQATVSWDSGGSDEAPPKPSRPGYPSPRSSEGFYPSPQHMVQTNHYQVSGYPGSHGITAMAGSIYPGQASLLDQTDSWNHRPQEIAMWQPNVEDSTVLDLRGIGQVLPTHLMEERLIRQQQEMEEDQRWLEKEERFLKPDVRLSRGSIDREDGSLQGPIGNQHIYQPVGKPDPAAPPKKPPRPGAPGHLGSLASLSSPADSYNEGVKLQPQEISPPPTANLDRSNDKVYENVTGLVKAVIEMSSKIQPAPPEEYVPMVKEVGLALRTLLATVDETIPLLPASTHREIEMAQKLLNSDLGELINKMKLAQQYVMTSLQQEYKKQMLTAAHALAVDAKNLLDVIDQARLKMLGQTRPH
For test [7], the target named is Ribosomal protein S6 kinase alpha-4 (Homo sapiens) (UniProt O75676). Put plainly: Selectivity interaction (KinomeScan (DiscoverX)) EUB0000092b RPS6KA4. The settings on record: at 10 µM.
Ribosomal protein S6 kinase alpha-4 (Homo sapiens), sequence (O75676 whole entry, looked up): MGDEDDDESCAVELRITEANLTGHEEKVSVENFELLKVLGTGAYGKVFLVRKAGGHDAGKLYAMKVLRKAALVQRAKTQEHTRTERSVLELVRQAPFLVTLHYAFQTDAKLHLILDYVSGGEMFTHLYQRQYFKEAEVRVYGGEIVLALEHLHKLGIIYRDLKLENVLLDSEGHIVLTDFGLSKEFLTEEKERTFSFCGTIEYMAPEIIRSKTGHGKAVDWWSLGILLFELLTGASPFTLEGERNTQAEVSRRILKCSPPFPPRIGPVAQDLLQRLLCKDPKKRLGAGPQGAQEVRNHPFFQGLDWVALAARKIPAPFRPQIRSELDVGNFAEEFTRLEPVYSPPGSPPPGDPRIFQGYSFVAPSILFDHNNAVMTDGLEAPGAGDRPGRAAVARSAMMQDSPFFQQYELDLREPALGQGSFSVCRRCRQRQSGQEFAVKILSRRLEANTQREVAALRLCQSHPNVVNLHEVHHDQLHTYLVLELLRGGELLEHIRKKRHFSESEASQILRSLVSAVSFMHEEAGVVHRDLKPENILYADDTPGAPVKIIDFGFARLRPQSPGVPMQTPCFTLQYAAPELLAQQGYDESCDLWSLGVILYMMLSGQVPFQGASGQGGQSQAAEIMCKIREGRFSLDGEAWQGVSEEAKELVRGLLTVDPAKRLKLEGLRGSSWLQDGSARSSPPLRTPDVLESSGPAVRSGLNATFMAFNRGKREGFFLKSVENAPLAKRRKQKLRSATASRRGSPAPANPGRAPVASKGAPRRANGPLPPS

Insulin receptor, sequence (P06213 28-758 limits assumed): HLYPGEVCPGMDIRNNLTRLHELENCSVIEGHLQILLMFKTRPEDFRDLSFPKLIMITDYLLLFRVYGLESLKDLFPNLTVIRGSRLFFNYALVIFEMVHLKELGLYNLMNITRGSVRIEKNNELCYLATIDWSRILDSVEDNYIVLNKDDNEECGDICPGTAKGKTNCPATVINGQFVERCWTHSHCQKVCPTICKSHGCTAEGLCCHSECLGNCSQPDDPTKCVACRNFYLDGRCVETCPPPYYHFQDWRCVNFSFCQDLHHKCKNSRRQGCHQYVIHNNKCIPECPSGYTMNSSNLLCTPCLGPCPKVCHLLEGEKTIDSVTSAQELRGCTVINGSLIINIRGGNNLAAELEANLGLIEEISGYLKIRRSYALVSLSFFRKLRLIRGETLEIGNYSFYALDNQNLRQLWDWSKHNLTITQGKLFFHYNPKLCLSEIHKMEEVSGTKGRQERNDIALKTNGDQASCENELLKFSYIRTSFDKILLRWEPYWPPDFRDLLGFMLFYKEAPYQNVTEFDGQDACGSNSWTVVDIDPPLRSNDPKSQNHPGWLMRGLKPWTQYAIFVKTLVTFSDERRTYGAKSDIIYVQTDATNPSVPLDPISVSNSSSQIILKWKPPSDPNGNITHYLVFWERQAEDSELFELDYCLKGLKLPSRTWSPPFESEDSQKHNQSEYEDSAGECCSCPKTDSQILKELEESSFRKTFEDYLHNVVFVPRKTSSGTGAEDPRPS
Insulin receptor, sequence (P06213 763-1382 limits assumed): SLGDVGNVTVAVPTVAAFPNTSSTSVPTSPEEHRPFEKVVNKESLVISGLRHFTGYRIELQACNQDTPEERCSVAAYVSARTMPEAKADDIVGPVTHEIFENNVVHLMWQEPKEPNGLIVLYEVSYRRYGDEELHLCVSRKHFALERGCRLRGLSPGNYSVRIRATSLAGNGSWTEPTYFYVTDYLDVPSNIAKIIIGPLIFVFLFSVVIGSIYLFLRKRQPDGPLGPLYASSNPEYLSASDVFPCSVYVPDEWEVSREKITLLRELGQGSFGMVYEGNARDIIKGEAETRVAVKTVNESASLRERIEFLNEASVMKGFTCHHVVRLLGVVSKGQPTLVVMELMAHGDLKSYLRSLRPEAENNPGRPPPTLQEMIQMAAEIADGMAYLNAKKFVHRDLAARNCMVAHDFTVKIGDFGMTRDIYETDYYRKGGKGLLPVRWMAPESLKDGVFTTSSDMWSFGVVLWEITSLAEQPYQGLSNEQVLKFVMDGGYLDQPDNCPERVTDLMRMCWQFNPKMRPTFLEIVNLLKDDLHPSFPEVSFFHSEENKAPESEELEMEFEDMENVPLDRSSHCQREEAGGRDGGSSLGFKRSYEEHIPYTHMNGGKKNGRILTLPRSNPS

As to `COCCN1CCC(c2cc(CN(C)C(=O)c3cccc(Oc4ccccc4)c3)ccn2)CC1`, the IC50 in test [1] is > 3 nM. For `N#Cc1cccc(-c2c[nH]c3ncnc(N4CCOCC4)c23)c1`, the % of control in test [2] is 100%.

With `Cc1cc(F)c(C(=O)Nc2cccc(-c3nncn3C(C)C)n2)cc1-n1cnc(C2CC2)c1`, the % of control in test [3] turned out to be 100%. With `O=C(NOC[C@H](O)CO)c1ccc(F)c(F)c1Nc1ccc(I)cc1F`, in [4], the % of control turned out to be 100%. For `CNC(=O)Nc1ccc(-c2nc(N3CC4CCC(C3)O4)c3cnn(C4CCC5(CC4)OCCO5)c3n2)cc1`, the % of control in test [5] amounted to 100%.

Take `Cc1cc([C@@H](C)Nc2ccccc2C(=O)O)c2nc(N3CCOCC3)cc(=O)n2c1` [AZD-6482]: the % of control on Insulin receptor amounted to 100%.

Take `CN(C(=O)c1cnn2cccnc12)c1cc2c(cc1N1CCOCC1)C(=O)N(C[C@@H](F)C(C)(C)O)C2`: in test [6], the dTM turned out to be 0.6 K. Turning to `C=CC(=O)Nc1cc(-n2c(=O)ccc3cnc4ccc(-c5ccc(NS(C)(=O)=O)cc5)cc4c32)ccc1C`, the % of control turned out to be 96% on Focal adhesion kinase 1 (at 1 µM) and 100% at Focal adhesion kinase 1 (at 10 µM). `CCC(=O)N1CCN(c2ccc(-n3c(=O)ccc4cnc5ccc(-c6cnc7ccccc7c6)cc5c43)cc2C(F)(F)F)CC1` showed a % of control in test [7] of 100%.
